Results on 15 molecules are retold here after PubChem BioAssay (NCI).

Test systems include HL-60(TB) leukemia; NCI-H23 lung; SK-MEL-28 melanoma; SN12C renal; UACC-257 melanoma; CAKI-1 renal; NCI-H460 lung; HS 578T breast; BT-549 breast; SR leukemia.
What all share (experiment): growth of human tumour cells (NCI), 48 h

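Test compounds were applied to cells in 96-well plates for 48 hours at 5 doses. The concentration for 50% growth inhibition is given as GI50. TGI: total growth inhibition.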

Consider `CC1=NNC(=O)C1C1C=C(c2c[nH]c3ccccc23)OC1=O` (stereo not given), for which the TGI in the assay on HL-60(TB) leukemia, in the assay on NCI-H23 lung, with SK-MEL-28 melanoma, in the assay with SN12C renal, with UACC-257 melanoma and with CAKI-1 renal was more than 100 µM throughout. In addition, the TGI in the assay with NCI-H460 lung, in the assay with HS 578T breast and in the assay on BT-549 breast was more than 100 µM in each case.
For the molecule `O=C(O)CCC(NC(=O)c1ccc(CNc2nc3cc(C(F)(F)F)ccc3nc2C(=O)O)cc1)C(=O)O` (stereo not given), the TGI in the assay with HL-60(TB) leukemia, in the assay with NCI-H23 lung, with SK-MEL-28 melanoma, in the assay with UACC-257 melanoma, in the assay with CAKI-1 renal and with NCI-H460 lung was more than 100 µM throughout. This molecule also displayed a TGI in the assay with SR leukemia of more than 100 µM.
For `COc1ccc(C2=NN(C(=O)c3ccc(Cl)cc3)C(O)(c3cc(F)c(Cl)cc3Cl)C2)cc1` (stereo not given), the TGI with HL-60(TB) leukemia, in the assay with NCI-H23 lung, in the assay on SK-MEL-28 melanoma, in the assay on SN12C renal, in the assay on UACC-257 melanoma and in the assay on CAKI-1 renal was more than 100 µM in each case. Further, the TGI in the assay with NCI-H460 lung, in the assay on HS 578T breast and in the assay on BT-549 breast was more than 100 µM in each case.
`N#CC(C#N)=Cn1c(=S)[nH]c2ccc([N+](=O)[O-])cc21`: the TGI in the assay with HL-60(TB) leukemia, in the assay on NCI-H23 lung, in the assay on SK-MEL-28 melanoma, in the assay on SN12C renal, with UACC-257 melanoma and in the assay with CAKI-1 renal was more than 100 µM throughout. In addition, the TGI in the assay with NCI-H460 lung, in the assay on SR leukemia and in the assay with HS 578T breast was more than 100 µM in each case.
With `Cc1ccc2c(c1)CC1(C2)Cc2ccc(C)cc2C1=O` (stereo not given), the TGI with HL-60(TB) leukemia is 63.4 µM; in the assay on NCI-H23 lung, more than 100 µM; in the assay with SK-MEL-28 melanoma, more than 100 µM; with SN12C renal it was more than 100 µM; with UACC-257 melanoma, 48.1 µM; with CAKI-1 renal it was 87.2 µM. The TGI was 55.5 µM in the assay on NCI-H460 lung, 57 µM in the assay on SR leukemia and more than 100 µM with HS 578T breast.
Turning to `C[C@H]1S[C@H](c2c(F)cccc2F)n2c1nc1ccccc12`, the TGI with NCI-H23 lung, in the assay on SK-MEL-28 melanoma, in the assay on SN12C renal, with UACC-257 melanoma, with CAKI-1 renal and with NCI-H460 lung was more than 100 µM throughout. Moreover, the TGI in the assay on HS 578T breast and with BT-549 breast was more than 100 µM each time.
Regarding `O=c1c2ccccc2nc(N/N=C/c2ccc(Cl)cc2)n1-c1ccccc1`, the TGI in the assay on HL-60(TB) leukemia, in the assay on NCI-H23 lung, with SK-MEL-28 melanoma, in the assay with SN12C renal, with UACC-257 melanoma and in the assay on CAKI-1 renal was more than 100 µM throughout. Moreover, the TGI in the assay with NCI-H460 lung and in the assay on SR leukemia was more than 100 µM each time.
Regarding `COC1OC(Cn2cc([N+](=O)[O-])nc2C)C(O)C(O)C1O` (stereo not given), the TGI in the assay with NCI-H23 lung, in the assay with SK-MEL-28 melanoma, with UACC-257 melanoma, in the assay with CAKI-1 renal, in the assay with NCI-H460 lung and in the assay with SR leukemia was more than 100 µM in each case. This molecule also came in with a TGI with HS 578T breast of more than 100 µM.
As for `CN1CCN(Cc2ccccc2)CC1CC#N` (stereo not given), the TGI in the assay on HL-60(TB) leukemia, with NCI-H23 lung, in the assay with SK-MEL-28 melanoma, in the assay with SN12C renal, in the assay on UACC-257 melanoma and in the assay with CAKI-1 renal was more than 100 µM throughout. Besides, the TGI in the assay on NCI-H460 lung, in the assay with SR leukemia and in the assay with BT-549 breast was more than 100 µM each time.
Turning to `COc1ccc(NC(=O)NNS(=O)(=O)c2ccc(C)cc2)cc1`, the TGI in the assay with HL-60(TB) leukemia, in the assay with NCI-H23 lung, in the assay on SK-MEL-28 melanoma, in the assay on SN12C renal, with UACC-257 melanoma and in the assay on CAKI-1 renal was more than 100 µM in each case. Moreover, the TGI in the assay with NCI-H460 lung, in the assay on SR leukemia and in the assay with HS 578T breast was more than 100 µM each time.
Take `O=C(O)CCC(NC(=O)c1ccc(Oc2nc3ccccc3nc2-c2ccccc2)cc1)C(=O)O` (stereo not given): the TGI in the assay on HL-60(TB) leukemia, in the assay with NCI-H23 lung, in the assay with SK-MEL-28 melanoma, with SN12C renal, in the assay on UACC-257 melanoma and with CAKI-1 renal was more than 100 µM each time. The TGI with NCI-H460 lung and in the assay with SR leukemia was more than 100 µM each time.
As for `COc1cccc(CCn2c(N)c(C#N)c3ccc([N+](=O)[O-])cc3c2=O)c1`, the TGI was more than 46.4 µM in the assay with HL-60(TB) leukemia; more than 46.4 µM in the assay with NCI-H23 lung; more than 100 µM in the assay with SK-MEL-28 melanoma; more than 100 µM with SN12C renal; more than 31.6 µM with UACC-257 melanoma; more than 46.4 µM in the assay on CAKI-1 renal. Further, the TGI was more than 46.4 µM in the assay with NCI-H460 lung, 0.922 µM in the assay with SR leukemia and more than 46.4 µM with HS 578T breast.
For `Clc1ccc(N2N=C(c3cccc(Nc4ccncc4)c3)CC2c2ccc(Br)cc2)cc1` (stereo not given), the GI50 with HL-60(TB) leukemia was 2.02 µM; in the assay on SN12C renal, 1.67 µM; in the assay with CAKI-1 renal it was 1.52 µM; with NCI-H460 lung it was 1.85 µM. The TGI in the assay with HL-60(TB) leukemia was found to be 4.51 µM; in the assay with SN12C renal it was 3.21 µM; in the assay on CAKI-1 renal, 2.9 µM; in the assay with NCI-H460 lung it was 3.53 µM.
On to `COC(=O)CNC(=O)CSc1nnc(COc2ccc(Cl)cc2)n1-c1ccccc1`, for which the TGI in the assay on HL-60(TB) leukemia was more than 100 µM; in the assay on NCI-H23 lung it was more than 100 µM; in the assay on SK-MEL-28 melanoma, 81.3 µM; in the assay on SN12C renal it was 38.5 µM; with UACC-257 melanoma, 75.8 µM; with CAKI-1 renal it was 32.2 µM. Also, the TGI in the assay on NCI-H460 lung is more than 100 µM.
Take `CC(C)(C)OC(=O)C1/C(=C/CBr)CN1C(=O)OC(C)(C)C` (stereo not given): the TGI in the assay on HL-60(TB) leukemia amounted to 7.5 µM; with NCI-H23 lung it was 28.8 µM; in the assay with SK-MEL-28 melanoma it was 46.9 µM; in the assay on SN12C renal, 27 µM; in the assay with UACC-257 melanoma, 32.3 µM; with CAKI-1 renal it was 30.5 µM. The values for the TGI in the assay with NCI-H460 lung, in the assay on HS 578T breast and in the assay with BT-549 breast were 34.9 µM, 49.1 µM and 36.2 µM, respectively.
